Like-named read-outs stand apart in the source and are kept apart here.
Legend:
[1] = molecular target: ENPP-1 (Ectonucleotide Pyrophosphatase/Phosphodiesterase 1) (Homo sapiens (Human), UniProt P22413); assay: ENPP1 inhibition assay (AMP Glo, cGAMP substrate); assay type: biochemical; conditions: cGAMP 20 μM substrate, ENPP1 1 nM
[2] = system: IFN-β release in mouse splenocytes; assay: IFN-β in mouse splenocyte assay; assay type: cell-based, Balb/c mice; conditions: activated Balb/c splenocytes, cGAMP 1 μM, 24 hr
Procedure: Percent release of Interferon Beta (IFN-03) is determined in mouse splenocytes isolated from Balb/c mice. Mouse splenocytes ([…] cells/well) were activated with Anti-mouse CD3e (3 μg/mil, coated overnight at 4° C.; Cat #14-0032-82, eBioscience) and then incubated with Anti-mouse CD28 (3 μg/ml soluble; Cat #16-0289-81, eBiosciences) for 24 h at 37° C., 5% CO2 in an incubator (cell culture conditions) prior to treating them with serial dilutions of compounds (3 fold, 6 point dose response starting at 30 μM). After treatment with the compounds cells are further incubated for 2 h under cell culture conditions and then treated with 2′,3′-cGAMP (c-GAMP, 1 μM; Cat #SML 1229, Sigma). Splenocytes were further incubated under cell culture conditions for 24 hr after which the supernatant was harvested, and ELISA was performed as per the manufacturer's protocol (mIFN-β kit; Cat #MIFNB0 & DY008, R&D Systems). Plates were read in Biotek plate reader by measuring absorbance at 450 nm.

[3] = system: IP-10 release in mouse splenocytes; assay: IP-10 in mouse splenocyte assay; assay type: cell-based, Balb/c mice; conditions: activated Balb/c splenocytes, cGAMP 1 μM, 48 hr
Procedure: Percent release of Interferon gamma-induced protein 10 (IP-10) was determined in mouse splenocytes isolated from Balb/c mice. Mouse splenocytes (2.5*10^5 cells/well) were activated with Anti-mouse CD3e (3 μg/ml, coated overnight at 4° C.; Cat #14-0032-82, eBioscience) and then incubated with Anti-mouse CD28 (3 μg/ml soluble; Cat #16-0289-81, eBiosciences) for 24 h at 37° C., 5% CO2 in an incubator (cell culture conditions) prior to treating them with serial dilutions of compounds (3 fold, 6 point dose response starting at 30 μM). After treatment with the compounds cells were further incubated for 2 h under cell culture conditions and then treated with 2′,3′-cGAMP (c-GAMP, 1 μM; Cat #SML 1229, Sigma). Splenocytes were further incubated under cell culture conditions for 48 hr after which the supernatant was harvested, and ELISA was performed as per the manufacturer's protocol (mIP-10 kit; Cat #DY466-05 & DY008, R&D Systems). Plates were read in Biotek plate reader by measuring absorbance at 450 nm.

[4] = system: IFN-β release in differentiated THP-1 cells; assay: IFN-β cytokine release assay in THP-1; assay type: cell-based; conditions: Homo sapiens, read-out: EC50 (μM) @ 1 μM of cGAMP; IFN-β release over cGAMP induced release, THP-1, 1 μM cGAMP
Procedure: Percent release of Interferon Beta (IFN-03) was determined in acute monocytic leukemia (THP-1; ATCC® TIB-202™) cell line. THP-1 cells (0.3×10^6 cells/well) were differentiated using phorbol 12-myristate 13-acetate (PMA, 50 ng/mL; Cat #P8139, Sigma) and incubated for 24 h at 37° C., 5% CO2 in an incubator (cell culture conditions) prior to treating with serial dilutions of compounds (3 fold, 5 point dose response starting at […]). After treatment with the compounds cells were further incubated for 2 h under cell culture conditions and then exposed to 2′,3′-cGAMP (c-GAMP, 1 μM; Cat #SML 1229, Sigma). Differentiated THP-1 cells were further cultured for 6 h after which the supernatant was harvested, and ELISA was performed as per the manufacturer's protocol (Human IFN-beta Quantikine ELISA Kit; Cat #DIFNB0, R&D systems). Plates were read in Biotek plate reader by measuring absorbance at 450 nm.

[5] = system: IP-10 release in differentiated THP-1 cells; assay: IP-10 cytokine release assay in THP-1 cell lines; assay type: cell-based, Human; conditions: for EC50: Homo sapiens, IP-10 release over cGAMP induced release; for Percent release IP-10 (Absolute): differentiated THP-1
Procedure: Percent release of Interferon gamma-induced protein 10 (IP-10) was determined in acute monocytic leukemia (THP-1; ATCC® TIB-202™) cell line. THP-1 cells (0.2×10^6 cells/well) were differentiated using phorbol 12-myristate 13-acetate (PMA, 10 nM (final concentration); Cat #P8139, Sigma) and incubated for 24 h at 37° C., 5% CO2 in an incubator (cell culture conditions) prior to treating with serial dilutions of compounds (3 fold, 6 point dose response starting at 10 μM). After treatment with the compounds cells were further incubated for 2 h under cell culture conditions and then exposed to 2′,3′-cGAMP (c-GAMP, 1 μM (final concentration); Cat #SML 1229, Sigma). Differentiated THP-1 cells were further cultured for 24 h after which the supernatant was harvested, and ELISA was performed as per the manufacturer's protocol (BD optEIA Human IP-10 ELISA Set; Cat #550926 & 550534, BD Biosciences). Plates were read in Biotek plate reader by measuring absorbance at 450 nm.
The release of absolute IP-10 in differentiated THP-1 by compounds in the presence of cGAMP was quantified with reference to standard after subtracting blank (negative) reading from the test readings. The absolute release of IP-10 in the presence of cGAMP (1 μM) is given in the bar-graph (FIG.-1) and in the table-B2a.
The release of IP-10 in differentiated THP-1 by compounds over cGAMP induced release at four different concentrations of cGAMP (1, 5, 10 & 30 μM) was quantified with reference to standard by normalizing the blank (negative) subtracted test readings from average of cGAMP activated cells at that particular concentration. The EC50's was calculated by fitting the curve to the “four-parameter variable slope logistic model” using Prism Graph Pad.

[6] = read-out: EC50 (μM)@ 1 μM of cGAMP, THP-1, 1 μM cGAMP

Chain of ENPP-1 (Ectonucleotide Pyrophosphatase/Phosphodiesterase 1) (P22413 whole entry): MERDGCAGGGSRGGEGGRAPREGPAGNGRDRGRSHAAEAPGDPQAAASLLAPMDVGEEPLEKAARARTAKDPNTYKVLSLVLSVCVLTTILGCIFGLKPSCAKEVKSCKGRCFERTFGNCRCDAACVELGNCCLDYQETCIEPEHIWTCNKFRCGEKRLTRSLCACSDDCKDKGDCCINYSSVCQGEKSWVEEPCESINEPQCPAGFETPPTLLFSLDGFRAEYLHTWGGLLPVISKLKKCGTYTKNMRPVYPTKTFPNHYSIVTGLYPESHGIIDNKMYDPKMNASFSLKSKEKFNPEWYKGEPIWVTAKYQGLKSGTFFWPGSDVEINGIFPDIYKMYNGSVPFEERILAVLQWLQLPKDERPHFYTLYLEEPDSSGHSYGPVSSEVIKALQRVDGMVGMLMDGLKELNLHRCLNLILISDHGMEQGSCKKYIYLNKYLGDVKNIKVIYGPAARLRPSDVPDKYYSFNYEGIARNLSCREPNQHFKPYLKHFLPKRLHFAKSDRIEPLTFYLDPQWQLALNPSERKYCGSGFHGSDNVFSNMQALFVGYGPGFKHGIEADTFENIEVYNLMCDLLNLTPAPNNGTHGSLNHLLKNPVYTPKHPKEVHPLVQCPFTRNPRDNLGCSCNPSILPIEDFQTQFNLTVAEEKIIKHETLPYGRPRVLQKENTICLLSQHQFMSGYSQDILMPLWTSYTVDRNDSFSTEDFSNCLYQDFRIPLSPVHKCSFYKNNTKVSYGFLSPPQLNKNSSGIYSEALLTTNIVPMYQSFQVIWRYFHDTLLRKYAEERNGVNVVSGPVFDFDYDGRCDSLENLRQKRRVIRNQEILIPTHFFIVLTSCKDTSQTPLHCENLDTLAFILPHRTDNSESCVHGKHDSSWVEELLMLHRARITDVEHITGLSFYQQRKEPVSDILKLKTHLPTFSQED

SMILES: COc1cc2ncnc(N3CC(CCNS(N)(=O)=O)C3)c2cc1OC [Compound 1.1, (2-(1-(6,7-dimethoxyquinazolin-4-yl)azetidin-3-yl)ethyl)aminisulfonamide]
- IC50 [1]: 0.008 µM
- IC50 [2]: 3090 nM
- IC50 [3]: 1720 nM
- EC50 [4]: < 3.35 µM
- EC50 [5, 6]: 0.308 µM
- EC50 ([5]; read-out: EC50 (μM)@ 10 μM of cGAMP, THP-1, 10 μM cGAMP): 0.471 µM
- EC50 ([5]; read-out: EC50 (μM)@ 30 μM of cGAMP, THP-1, 30 μM cGAMP): 0.624 µM
- EC50 ([5]; THP-1, 5 μM cGAMP, read-out: EC50 (μM)@ 5 μM of cGAMP): < 0.12 µM
- Percent release IP-10 (Absolute) ([5]; cGAMP (1 μM) + compound 0.37 μM): 8.9%
- Percent release IP-10 (Absolute) ([5]; cGAMP (1 μM) + compound 1.11 μM): 11.4%
- Percent release IP-10 (Absolute) ([5]; cGAMP (1 μM) + compound 3.33 μM): 13.1%
- Percent release IP-10 (Absolute) ([5]; cGAMP (1 μM) + compound 10 μM): 18.3%
- Percent release IP-10 (Absolute) ([5]; cGAMP (1 μM) + compound […]): 7.0%

SMILES: Cc1cc(Cl)n2ncnc(N3CC4(CC(N(C)S(N)(=O)=O)C4)C3)c12 [Compound 1.76, N-[2-(7-chloro-5-methylpyrrolo[2,1-f][1,2,4]triazin-4-yl)-2-azaspiro[3.3]hept-6-yl]-N-methylsulfuric diamide]
- IC50 [1]: 0.084 µM
- IC50 [2]: 3260 nM
- IC50 [3]: 1780 nM
- EC50 [4]: < 0.12 µM
- EC50 [5, 6]: 0.071 µM

— patent US20240352046A1, “ECTONUCLEOTIDE PYROPHOSPHATASE-PHOSPHODIESTERASE-1 (ENPP1) INHIBITORS AND USES THEREOF” (1cBio, Inc., priority 2020, published 2024)
